These results are taken from patent US10004701B2, “Methods and compositions for treating infection” (UNIVERSITY OF ROCHESTER, priority 2012, dated 2018).

What all share (assay): AK assay 384-well format, Prestwick library screening
Test [1] relates to E. faecium. It is filed as cell-based, Enterococcus faecium. Particulars: 50 μM final drug concentration; for fold induction at 50 µM: Enterococcus faecium, 3 h; for AK-based Prestwick library screening result, E. faecium (fold increase in extracellular AK activity): positive cutoff 3-fold increase.
The subject of test [2] is S. aureus strain USA300-0114. It is filed as cell-based, Staphylococcus aureus. Particulars: 50 μM final drug concentration; for fold induction at 50 µM: Staphylococcus aureus, USA300, 3 h; for AK-based Prestwick library screening result, S. aureus (fold increase in extracellular AK activity): positive cutoff 3-fold increase.
The subject of test [3] is K. pneumoniae. The test is classed as cell-based, Klebsiella pneumoniae. The note with it: 50 μM final drug concentration; for fold induction at 50 µM: Klebsiella pneumoniae, 3 h; for AK-based Prestwick library screening result, K. pneumoniae (fold increase in extracellular AK activity): positive cutoff 3-fold increase.
Test [4] relates to A. baumannii strain 98-37-09. It is filed as cell-based, Acinetobacter baumannii. The note with it: 50 μM final drug concentration; for fold induction at 50 µM: Acinetobacter baumannii, 983709, 3 h; for AK-based Prestwick library screening result, A. baumannii (fold increase in extracellular AK activity): positive cutoff 3-fold increase.
The test system of test [5] is P. aeruginosa. The test is classed as cell-based, Pseudomonas aeruginosa. Particulars: 50 μM final drug concentration; for fold induction at 50 µM: Pseudomonas aeruginosa, 3 h; for AK-based Prestwick library screening result, P. aeruginosa (fold increase in extracellular AK activity): positive cutoff 3-fold increase.
For test [6], the system named is E. cloacae. The test is classed as cell-based, Enterobacter cloacae. The note with it: 50 μM final drug concentration; for fold induction at 50 µM: Enterobacter cloacae, 3 h; for AK-based Prestwick library screening result, E. cloacae (fold increase in extracellular AK activity): positive cutoff 3-fold increase.
Test [7] concerns E. coli. The test is classed as cell-based, Escherichia coli. The note with it: 50 μM final drug concentration; for fold induction at 50 µM: Escherichia coli, 3 h.
[8] abbreviates: planktonic, cutoff for positive-scoring molecules 3-fold increase, read-out: AK-based Prestwick Library Screening Results, E. faecium (fold increase in extracellular AK activity).
Setting [9] is: planktonic, cutoff for positive-scoring molecules 3-fold increase, read-out: AK-based Prestwick Library Screening Results, S. aureus (fold increase in extracellular AK activity).
[10] abbreviates: planktonic, cutoff for positive-scoring molecules 3-fold increase, read-out: AK-based Prestwick Library Screening Results, K. pneumoniae (fold increase in extracellular AK activity).
The mark [11] stands for this setting: planktonic, cutoff for positive-scoring molecules 3-fold increase, read-out: AK-based Prestwick Library Screening Results, A. baumannii (fold increase in extracellular AK activity).
Setting [12] is: planktonic, cutoff for positive-scoring molecules 3-fold increase, read-out: AK-based Prestwick Library Screening Results, P. aeruginosa (fold increase in extracellular AK activity).
Where [13] appears, read: planktonic, cutoff for positive-scoring molecules 3-fold increase, read-out: AK-based Prestwick Library Screening Results, E. cloacae (fold increase in extracellular AK activity).
Where [14] appears, read: planktonic, cutoff for positive-scoring molecules 3-fold increase, read-out: AK-based Prestwick Library Screening Results, E. coli (fold increase in extracellular AK activity).
The mark [15] stands for this setting: planktonic E. faecium, cutoff for positive-scoring molecules 3-fold increase, read-out: AK-based Prestwick Library Screening Results, E. faecium (increase in extracellular AK activity).
[16] abbreviates: planktonic S. aureus, cutoff for positive-scoring molecules 3-fold increase, read-out: AK-based Prestwick Library Screening Results, S. aureus (increase in extracellular AK activity).
The mark [17] stands for this setting: planktonic K. pneumoniae, cutoff for positive-scoring molecules 3-fold increase, read-out: AK-based Prestwick Library Screening Results, K. pneumoniae (increase in extracellular AK activity).
Where [18] appears, read: planktonic A. baumannii, cutoff for positive-scoring molecules 3-fold increase, read-out: AK-based Prestwick Library Screening Results, A. baumannii (increase in extracellular AK activity).
[19] abbreviates: planktonic P. aeruginosa, cutoff for positive-scoring molecules 3-fold increase, read-out: AK-based Prestwick Library Screening Results, P. aeruginosa (increase in extracellular AK activity).
The mark [20] stands for this setting: planktonic E. cloacae, cutoff for positive-scoring molecules 3-fold increase, read-out: AK-based Prestwick Library Screening Results, E. cloacae (increase in extracellular AK activity).
Where [21] appears, read: planktonic E. coli, cutoff for positive-scoring molecules 3-fold increase, read-out: AK-based Prestwick Library Screening Results, E. coli (increase in extracellular AK activity).
Setting [22] is: cutoff for positive-scoring molecules 3-fold increase.
Setting [23] is: planktonic, cutoff for positive-scoring molecules 3-fold increase.

Where a name gives a salt, the structure may show the parent alone. Read-outs that look alike come from different tables or passages of the source.

`NC[C@H]1O[C@H](O[C@H]2[C@H](O)[C@@H](O[C@H]3O[C@H](CO)[C@@H](O)[C@H](N)[C@H]3O)[C@H](N)C[C@@H]2N)[C@H](N)C[C@@H]1O` [Tobramycin]: the fold induction at 50 µM in test [1] (planktonic, cutoff for positive 3-fold increase, read-out: AK-based Prestwick Library Screening Results, E. faecium (fold increase in extracellular AK activity)) was determined as 0.9; in test [2] (planktonic, cutoff for positive 3-fold increase, read-out: AK-based Prestwick Library Screening Results, S. aureus (fold increase in extracellular AK activity)), 1.1; in test [3] (planktonic, cutoff for positive 3-fold increase, read-out: AK-based Prestwick Library Screening Results, K. pneumoniae (fold increase in extracellular AK activity)), 2; in test [4] (planktonic, cutoff for positive 3-fold increase, read-out: AK-based Prestwick Library Screening Results, A. baumannii (fold increase in extracellular AK activity)), 5.7; in test [5] (planktonic, cutoff for positive 3-fold increase, read-out: AK-based Prestwick Library Screening Results, P. aeruginosa (fold increase in extracellular AK activity)), 17.1; in test [6] (planktonic, cutoff for positive 3-fold increase, read-out: AK-based Prestwick Library Screening Results, E. cloacae (fold increase in extracellular AK activity)), 1.5. Besides, in test [7] (planktonic, cutoff for positive 3-fold increase, read-out: AK-based Prestwick Library Screening Results, E. coli (fold increase in extracellular AK activity)), the fold induction at 50 µM turned out to be 7.5.

With (S)-propranolol hydrochloride, in test [1] (planktonic E. faecium), the “AK-based Prestwick library screening result, E. faecium (fold increase in extracellular AK activity)” value is recorded as 1.1. Moreover, in test [2] (planktonic S. aureus), the “AK-based Prestwick library screening result, S. aureus (fold increase in extracellular AK activity)” value was 1.0. The “AK-based Prestwick library screening result, K. pneumoniae (fold increase in extracellular AK activity)” value in test [3] (planktonic K. pneumoniae) came to 1.0. The “AK-based Prestwick library screening result, A. baumannii (fold increase in extracellular AK activity)” value in test [4] (planktonic A. baumannii) is on record as 1.0. The “AK-based Prestwick library screening result, P. aeruginosa (fold increase in extracellular AK activity)” value in test [5] (planktonic P. aeruginosa) came to 1.1. Further, the “AK-based Prestwick library screening result, E. cloacae (fold increase in extracellular AK activity)” value in test [6] (planktonic E. cloacae) came out at 1.6. Further, in test [7] (planktonic E. coli, positive cutoff 3-fold increase), the “AK-based Prestwick library screening result, E. coli (fold increase in extracellular AK activity)” value is 1.2.

For the compound `CC1=CC(=O)C2=C(C)CC[C@@H]3[C@H](OC(=O)[C@H]3C)[C@@H]12` [Leucomisine], the “AK-based Prestwick library screening result, E. faecium (fold increase in extracellular AK activity)” value in test [1] (planktonic E. faecium) is recorded as 1.1. Moreover, the “AK-based Prestwick library screening result, S. aureus (fold increase in extracellular AK activity)” value in test [2] (planktonic S. aureus) is listed as 0.9. The “AK-based Prestwick library screening result, K. pneumoniae (fold increase in extracellular AK activity)” value in test [3] (planktonic K. pneumoniae) is 1.0. In addition, the “AK-based Prestwick library screening result, A. baumannii (fold increase in extracellular AK activity)” value in test [4] (planktonic A. baumannii) is 1.0. In addition, in test [5] (planktonic P. aeruginosa), the “AK-based Prestwick library screening result, P. aeruginosa (fold increase in extracellular AK activity)” value came out at 1.1. Also, the “AK-based Prestwick library screening result, E. cloacae (fold increase in extracellular AK activity)” value in test [6] (planktonic E. cloacae) turned out to be 1.6. Also, the “AK-based Prestwick library screening result, E. coli (fold increase in extracellular AK activity)” value in test [7] (planktonic E. coli, […]) stood at 1.3.

Turning to `CCCC(=O)Nc1ncnc2c1ncn2[C@@H]1O[C@@H]2COP(=O)(O)O[C@H]2[C@H]1OC(=O)CCC` [Bucladesine sodium salt], the fold induction at 50 µM was 0.9 in test [1] (setting [8]); 0.7 in test [2] (setting [9]); 0.6 in test [3] (setting [10]); 0.8 in test [4] (setting [11]); 0.8 in test [5] (setting [12]); 0.9 in test [6] (setting [13]). In test [7] (setting [14]), the fold induction at 50 µM was 0.7.

For the compound `CN(C)CCN(Cc1ccc(Cl)cc1)c1ccccn1` [Chloropyramine hydrochloride], the fold induction at 50 µM is 0.9 in test [1] (setting [8]); 0.5 in test [2] (setting [9]); 0.6 in test [3] (setting [10]); 0.6 in test [4] (setting [11]); 0.5 in test [5] (setting [12]); 0.6 in test [6] (setting [13]). Moreover, the fold induction at 50 µM in test [7] (setting [14]) is 0.7.

In the case of `C[C@@H]1C[C@H]2[C@@H]3CCC4=CC(=O)C=C[C@]4(C)[C@@]3(Cl)[C@@H](O)C[C@]2(C)[C@@]1(OC(=O)c1ccco1)C(=O)CCl` [Mometasone furoate], the fold induction at 50 µM in test [1] (setting [15]) came out at 1; in test [2] (setting [16]), 0.4; in test [3] (setting [17]), 0.7; in test [4] (setting [18]) it was 0.9; in test [5] (setting [19]), 0.6; in test [6] (setting [20]) it was 0.9. Moreover, the fold induction at 50 µM in test [7] (setting [21]) came to 0.9.

Turning to `C[C@@H]1NC(=O)NC1=O` [Methylhydantoin-5-(L)], the “AK-based Prestwick Library Screening Results, E. faecium (fold increase in extracellular AK activity)” value in test [1] (setting [22]) was found to be 1.1. Also, the “AK-based Prestwick Library Screening Results, S. aureus (fold increase in extracellular AK activity)” value in test [2] (setting [22]) is given as 1.3. Further, in test [3] (setting [22]), the “AK-based Prestwick Library Screening Results, K. pneumoniae (fold increase in extracellular AK activity)” value was found to be 1.0. Besides, the “AK-based Prestwick Library Screening Results, A. baumannii (fold increase in extracellular AK activity)” value in test [4] (setting [22]) is reported as 1.0. The “AK-based Prestwick Library Screening Results, P. aeruginosa (fold increase in extracellular AK activity)” value in test [5] (setting [22]) came out at 1.1. In test [6] (setting [22]), the “AK-based Prestwick Library Screening Results, E. cloacae (fold increase in extracellular AK activity)” value was 2.0. Besides, the “AK-based Prestwick Library Screening Results, E. coli (fold increase in extracellular AK activity)” value in test [7] ([…]) turned out to be 1.4.

Consider `O.O=C1C(O)=C(O)C(=O)C(O)=C1O` [Tetrahydroxy-1,4-quinone monohydrate], for which, in test [1] (setting [23]), the “AK-based Prestwick Library Screening Results, E. faecium (fold increase in extracellular AK activity)” value came out at 0.9. Further, the “AK-based Prestwick Library Screening Results, S. aureus (fold increase in extracellular AK activity)” value in test [2] (setting [23]) was 0.8. Further, the “AK-based Prestwick Library Screening Results, K. pneumoniae (fold increase in extracellular AK activity)” value in test [3] (setting [23]) is given as 0.8. The “AK-based Prestwick Library Screening Results, A. baumannii (fold increase in extracellular AK activity)” value in test [4] (setting [23]) was found to be 1.1. Further, the “AK-based Prestwick Library Screening Results, P. aeruginosa (fold increase in extracellular AK activity)” value in test [5] (setting [23]) turned out to be 0.9. Further, the “AK-based Prestwick Library Screening Results, E. cloacae (fold increase in extracellular AK activity)” value in test [6] (setting [23]) came to 1.3. Further, the “AK-based Prestwick Library Screening Results, E. coli (fold increase in extracellular AK activity)” value in test [7] (setting [23]) stood at 0.9.

Consider `Nc1nc(=O)c2c([nH]1)NCC(CNc1ccc(C(=O)N[C@@H](CCC(=O)[O-])C(=O)[O-])cc1)N2C=O.[Ca+2]` (stereo partly shown) [Folinic acid calcium salt], for which the “AK-based Prestwick Library Screening Results, E. faecium (fold increase in extracellular AK activity)” value in test [1] (setting [23]) was 1.0. In test [2] (setting [23]), the “AK-based Prestwick Library Screening Results, S. aureus (fold increase in extracellular AK activity)” value was 0.7. Also, the “AK-based Prestwick Library Screening Results, K. pneumoniae (fold increase in extracellular AK activity)” value in test [3] (setting [23]) is 0.6. The “AK-based Prestwick Library Screening Results, A. baumannii (fold increase in extracellular AK activity)” value in test [4] (setting [23]) turned out to be 0.7. The “AK-based Prestwick Library Screening Results, P. aeruginosa (fold increase in extracellular AK activity)” value in test [5] (setting [23]) worked out at 0.6. Also, in test [6] (setting [23]), the “AK-based Prestwick Library Screening Results, E. cloacae (fold increase in extracellular AK activity)” value worked out at 0.7. In test [7] (setting [23]), the “AK-based Prestwick Library Screening Results, E. coli (fold increase in extracellular AK activity)” value worked out at 0.7.

With `Cc1cnc(NC(=O)C2=C(O)c3ccccc3S(=O)(=O)N2C)s1` [Meloxicam], the fold induction at 50 µM in test [1] (setting [15]) is 0.9; in test [2] (setting [16]), 2; in test [3] (setting [17]), 0.8; in test [4] (setting [18]), 0.9; in test [5] (setting [19]), 0.9; in test [6] (setting [20]) it was 1.2. Also, the fold induction at 50 µM in test [7] (setting [21]) is 1.
